13 molecules from US20230100838A1 (Revolution Medicines, Inc., priority 2019, published 2023) can be followed below.

Type in all cases: binding
The target in assay [1] is T1, GDP-loaded K-Ras (1-169) C51S, C80L, C118S (Homo sapiens, UniProt P01116, C118S/C51S/C80L).
T1 construct: GDP-loaded K-Ras (1-169) C51S, C80L, C118S
The assay can be described thus: K-Ras WT (GDP) cross-linking assay (conjugate formation, TOF mass spectrometry). Set-up: key: 0: No observed x-linking; +: 0 < x ≤ 20; ++: 20 < x ≤ 40; +++: 40 < x ≤ 100. Conditions: percent covalently modified K-Ras by MS, room temperature, typical compound conc. 2, 10, 25 μM, endpoints 1 and 24 h. In outline:
(§1)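 5 μM protein (final, from 50 μM) in HEPES/NaCl/MgCl2 buffer pH 7.4 with compound typically at 2, 10 and 25 μM, room temperature, 1 and 24 h endpoints; formic acid quench. Intact-protein LC–TOF MS; percent modification is covalent adduct peak height over total K-Ras peak height.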

For another assay, the target named is K-Ras G12S (Homo sapiens, UniProt P01116, G12S). Put plainly: K-Ras G12S cross-linking assay (comparable procedure, conjugate formation, TOF mass spectrometry). More on the design: key: 0: No observed x-linking. How it is done:
Protocol: K-Ras G12D(GDP) Cross-Linking Assay
Note: while the following protocol outlines the procedure for K-Ras G12D(GDP), a person of skill in the art may substitute other Ras proteins, and may also substitute a non-hydrolyzable GTP analog for GDP to study GTP bound Ras protein.
GDP-loaded K-Ras (1-169) G12D, C51S, C80L, C118S and GDP-loaded K-Ras (1-169) C51S, C80L, C118S were adjusted to 50 μM in K-Ras assay buffer (12.5 mM HEPES, 75 mM NaCl and 1 mM MgCl2 at pH 7.4). A 5 μL aliquot of each protein solution was added to each well of a 96-well microplate containing 40 μL of assay buffer. Initial compound stocks were prepared in DMSO at 100 times their final assay concentration. Compounds were then diluted 10-fold into K-Ras assay buffer to 10 times their final concentration. A 5 μL aliquot of each diluted compound solution was added to each protein solution in the 96-well microplate to initiate the reaction, which then proceeded at room temperature. Typical final compound concentrations were 2, 10, and 25 μM. At each time point, the reactions were analyzed immediately or quenched with 5 μL of a 5% formic acid solution and kept at 4° C. until analysis. Typical assay endpoints were 1 and 24 h.
Data collection took place on an Agilent 6230 TOF Mass Spectrometer. Complete reactions were injected onto a C4 reverse-phase column to separate protein from buffer components prior to entering the mass spectrometer. The proteins were eluted from the column by increasing acetonitrile fraction in the mobile phase and fed directly into the mass analyzer. Initial analysis of raw data took place in Agilent MassHunter BioConfirm software and consisted of deconvolution of multiple protein charge states with the maximum entropy algorithm, with a mass step of 1 Da. The heights of all deconvoluted protein masses were exported for further data analysis. The percent modification of each protein was then determined by calculating the peak height of the covalently modified K-Ras species as a percentage of the sum total of K-Ras protein peak height.

Assay [2] deals with T2, GDP-loaded K-Ras (1-169) G12D, C51S, C80L, C118S (Homo sapiens, UniProt P01116, C118S/C51S/C80L/G12D).
T2 construct: GDP-loaded K-Ras (1-169) G12D, C51S, C80L, C118S
The assay can be described thus: K-Ras G12D(GDP) cross-linking assay (conjugate formation, TOF mass spectrometry). More on the design: key: 0: No observed x-linking; +: 0 < x ≤ 20; ++: 20 < x ≤ 40; +++: 40 < x ≤ 100. Conditions: percent covalently modified K-Ras by MS, room temperature, typical compound conc. 2, 10, 25 μM, endpoints 1 and 24 h. In outline: as §1

Where [3] appears, read: Table 4, percent covalently modified K-Ras by MS.
The mark [4] stands for this setting: Table 5, percent covalently modified K-Ras by MS.

In the case of `Cc1cccc2cccc(N3CCc4c(nc(OC[C@@H]5CCCN5C)nc4N(C)CCCN=C=NCc4ccccc4)C3)c12` [Example 31, N-(3-(((benzylimino)methylene)amino)propyl)-N-methyl-7-(8-methylnaphthalen-1-yl)-2-(((S)-1-methylpyrrolidin-2-yl)methoxy)-5,6,7,8-tetrahydropyrido[3,4-d]pyrimidin-4-amine], the “WT x-linking (%)” value in assay [1] (Table 4) is “++ (20 < x ≤ 100)”. For the same molecule, the “G12S x-linking (%)” value on K-Ras G12S (setting [3]) was “++ (10 < x ≤ 100)”. For the same molecule, in assay [2] (Table 4), the “G12D x-linking (%)” value is “+++ (40 < x ≤ 100)”.
On to `Cc1cccc2cccc(N3CCc4c(nc(OC[C@@H]5CCCN5C)nc4N4CCC(N=C=NCCN(C)c5ccncn5)CC4)C3)c12` [Example 92, N-methyl-N-(2-((((1-(7-(8-methylnaphthalen-1-yl)-2-(((S)-1-methylpyrrolidin-2-yl)methoxy)-5,6,7,8-tetrahydropyrido[3,4-d]pyrimidin-4-yl)piperidin-4-yl)imino)methylene)amino)ethyl)pyrimidin-4-amine], for which, in assay [1] (Table 5), the “WT x-linking (%)” value is “++ (20 < x ≤ 100)”. For the same molecule, the “G12S x-linking (%)” value at K-Ras G12S (setting [4]) is given as “++ (10 < x ≤ 100)”. Moreover, in assay [2] (Table 5), the “G12D x-linking (%)” value is “+++ (40 < x ≤ 100)”.
With `COc1ccccc1CN=C=NC1CCN(c2nc(OC[C@@H]3CCCN3C)nc3c2CCN(c2cccc4cccc(C)c24)C3)CC1` [Example 81, N-(2-methoxybenzyl)-N-(1-(7-(8-methylnaphthalen-1-yl)-2-(((S)-1-methylpyrrolidin-2-yl)methoxy)-5,6,7,8-tetrahydropyrido[3,4-d]pyrimidin-4-yl)piperidin-4-yl)methanediimine], the “WT x-linking (%)” value in assay [1] (Table 5) is given as “+ (0 < x ≤ 20)”. Also, the “G12S x-linking (%)” value at K-Ras G12S (setting [4]) is given as “+ (0 < x ≤ 10)”. In addition, the “G12D x-linking (%)” value in assay [2] (Table 5) is given as “+ (0 < x ≤ 20)”.
As to `Cc1ccnc(C(C)C)c1-n1c(=O)nc(N2CCN(C(=O)[C@H]3CN3)C[C@@H]2C)c2cc(F)c(-c3c(O)cccc3F)nc21` [Example 65, 4-((S)-4-((R)-aziridine-2-carbonyl)-2-methylpiperazin-1-yl)-6-fluoro-7-(2-fluoro-6-hydroxyphenyl)-1-(2-isopropyl-4-methylpyridin-3-yl)pyrido[2,3-d]pyrimidin-2(1H)-one], the “WT x-linking (%)” value in assay [1] (Table 5) was “+ (0 < x ≤ 20)”. In addition, at K-Ras G12S (setting [4]), the “G12S x-linking (%)” value is reported as “+ (0 < x ≤ 10)”. The “G12D x-linking (%)” value in assay [2] (Table 5) is “+ (0 < x ≤ 20)”.
As for `CCCN=C=NCCN(C)c1nc(OC[C@@H]2CCCN2C)nc2c1CCN(c1cccc3cccc(C)c13)C2` [Example 26, N-methyl-7-(8-methylnaphthalen-1-yl)-2-(((S)-1-methylpyrrolidin-2-yl)methoxy)-N-(2-(((propylimino)methylene)amino)ethyl)-5,6,7,8-tetrahydropyrido[3,4-d]pyrimidin-4-amine], in assay [1] (Table 4), the “WT x-linking (%)” value is given as “++ (20 < x ≤ 100)”. Further, the “G12S x-linking (%)” value at K-Ras G12S (setting [3]) is given as “++ (10 < x ≤ 100)”. For the same molecule, the “G12D x-linking (%)” value in assay [2] (Table 4) was “+++ (40 < x ≤ 100)”.
In the same order, the values of `Fc1ccccc1-c1c(Cl)cc2c(N3CCC(N=C=Nc4ccccc4)CC3)ncnc2c1F` [Example 2, N-(1-(6-chloro-8-fluoro-7-(2-fluorophenyl)quinazolin-4-yl)piperidin-4-yl)-N-phenylmethanediimine] are “+ (0 < x ≤ 20)”, “+ (0 < x ≤ 10)” and “+ (0 < x ≤ 20)”.
For the molecule `Cc1cccc2cccc(N3CCc4c(nc(OC[C@@H]5CCCN5C)nc4N4CCC(N=C=NC5CCN(C)CC5)CC4)C3)c12` [Example 83, N-(1-(7-(8-methylnaphthalen-1-yl)-2-(((S)-1-methylpyrrolidin-2-yl)methoxy)-5,6,7,8-tetrahydropyrido[3,4-d]pyrimidin-4-yl)piperidin-4-yl)-N-(1-methylpiperidin-4-yl)methanediimine], in assay [1] (Table 5), the “WT x-linking (%)” value is given as “++ (20 < x ≤ 100)”. Besides, the “G12S x-linking (%)” value at K-Ras G12S (setting [4]) is listed as “++ (10 < x ≤ 100)”. In assay [2] (Table 5), the “G12D x-linking (%)” value is recorded as “+++ (40 < x ≤ 100)”.
Turning to `CN=C=NC1CCN(c2nc(OC[C@@H]3CCCN3C)nc3c2CCN(c2cccc4cccc(C)c24)C3)CC1` [Example 21, N-methyl-N-(1-(7-(8-methylnaphthalen-1-yl)-2-(((S)-1-methylpyrrolidin-2-yl)methoxy)-5,6,7,8-tetrahydropyrido[3,4-d]pyrimidin-4-yl)piperidin-4-yl)methanediimine], in assay [1] (Table 4), the “WT x-linking (%)” value was “++ (20 < x ≤ 100)”. Besides, the “G12S x-linking (%)” value at K-Ras G12S (setting [3]) is on record as “++ (10 < x ≤ 100)”. The “G12D x-linking (%)” value in assay [2] (Table 4) was “+++ (40 < x ≤ 100)”.
Regarding `COCCN=C=N[C@@H]1CCN(c2nc(OC[C@@H]3CCCN3C)nc3c2CCN(c2cccc4cccc(C)c24)C3)C[C@@H]1CC#N` [Example 75, 2-((3S,4R)-4-((((2-methoxyethyl)imino)methylene)amino)-1-(7-(8-methylnaphthalen-1-yl)-2-(((S)-1-methylpyrrolidin-2-yl)methoxy)-5,6,7,8-tetrahydropyrido[3,4-d]pyrimidin-4-yl)piperidin-3-yl)acetonitrile], the “WT x-linking (%)” value in assay [1] (Table 5) is recorded as “+ (0 < x ≤ 20)”. In addition, at K-Ras G12S (setting [4]), the “G12S x-linking (%)” value is given as “++ (10 < x ≤ 100)”. In addition, the “G12D x-linking (%)” value in assay [2] (Table 5) is given as “+++ (40 < x ≤ 100)”.
Turning to `OB(O)C1CCN(c2ncnc3c(F)c(-c4ccccc4F)c(Cl)cc23)CC1` [Example 19, (1-(6-chloro-8-fluoro-7-(2-fluorophenyl)quinazolin-4-yl)piperidin-4-yl)boronic Acid], in assay [1] (Table 4), the “WT x-linking (%)” value is 0. Also, the “G12S x-linking (%)” value at K-Ras G12S (setting [3]) came to 0. In addition, the “G12D x-linking (%)” value in assay [2] (Table 4) is 0.
Turning to `Cc1cccc2cccc(N3CCc4c(nc(OC[C@@H]5CCCN5C)nc4N4CCC(N=C=NCCCN5CCOCC5)CC4)C3)c12` [Example 85, N-(1-(7-(8-methylnaphthalen-1-yl)-2-(((S)-1-methylpyrrolidin-2-yl)methoxy)-5,6,7,8-tetrahydropyrido[3,4-d]pyrimidin-4-yl)piperidin-4-yl)-N-(3-morpholinopropyl)methanediimine], in assay [1] (Table 5), the “WT x-linking (%)” value is reported as “++ (20 < x ≤ 100)”. For the same molecule, the “G12S x-linking (%)” value at K-Ras G12S (setting [4]) is “++ (10 < x ≤ 100)”. For the same molecule, in assay [2] (Table 5), the “G12D x-linking (%)” value is listed as “+++ (40 < x ≤ 100)”.
For `Cc1cccc2cccc(N3CCc4c(nc(OC[C@@H]5CCCN5C)nc4N(C)CCN=C=NCc4ccc(Cl)cc4)C3)c12` [Example 28, N-(2-((((4-chlorobenzyl)imino)methylene)amino)ethyl)-N-methyl-7-(8-methylnaphthalen-1-yl)-2-(((S)-1-methylpyrrolidin-2-yl)methoxy)-5,6,7,8-tetrahydropyrido[3,4-d]pyrimidin-4-amine], the “WT x-linking (%)” value in assay [1] (Table 4) is “+ (0 < x ≤ 20)”. In addition, at K-Ras G12S (setting [3]), the “G12S x-linking (%)” value was “++ (10 < x ≤ 100)”. In assay [2] (Table 4), the “G12D x-linking (%)” value was “++ (20 < x ≤ 40)”.
In the case of `Cc1cccc2cccc(N3CCc4c(nc(OC[C@@H]5CCCN5C)nc4NCCN(C)C4=NCCO4)C3)c12` [Example 41, (S)—N^1-(4,5-dihydrooxazol-2-yl)-N^1-methyl-N^2-(7-(8-methylnaphthalen-1-yl)-2-((1-methylpyrrolidin-2-yl)methoxy)-5,6,7,8-tetrahydropyrido[3,4-d]pyrimidin-4-yl)ethane-1,2-diamine], the “WT x-linking (%)” value in assay [1] (Table 4) is listed as 0. Besides, at K-Ras G12S (setting [3]), the “G12S x-linking (%)” value turned out to be 0. Also, the “G12D x-linking (%)” value in assay [2] (Table 4) is 0.
